# Measurements as given in PubChem BioAssay AID1745844 (Carcinogenic Potency Database (CPDB), 2022).
# Calls of active or inactive are those of the source. No rule for the calls is given here.
# Tested on: rodent lifetime carcinogenesis bioassay, tumor incidence TD50
# Experiment: chronic cancer bioassays in animals – CPDB, compiled studies (AID 1745844)
structure (smiles),measurement,setting,value
COC(=O)C1=C(C)NC(C)=C(C(=O)OCCN2CCN(C(c3ccccc3)c3ccccc3)CC2)C1c1cccc([N+](=O)[O-])c1 (stereo unspecified),TD50,"mouse, strain ICR, females, in feed, site: liver, lesion: hepatocellular adenoma, dosed 78 weeks, study length 78 weeks",545 mg/kg/day (inactive)
same,TD50,"mouse, strain ICR, females, in feed, site: lung, lesion: alveolar/bronchiolar adenoma, dosed 78 weeks, study length 78 weeks",438 mg/kg/day (inactive)
same,carcinogen call,"mouse, strain ICR, males, in feed, site: liver, lesion: hepatocellular adenoma, dosed 78 weeks, study length 78 weeks",negative (inactive)
same,carcinogen call,"mouse, strain ICR, males, in feed, site: liver, lesion: hepatocellular carcinoma, dosed 78 weeks, study length 78 weeks",negative (inactive)
same,carcinogen call,"mouse, strain ICR, males, in feed, site: lung, lesion: alveolar/bronchiolar adenoma, dosed 78 weeks, study length 78 weeks",negative (inactive)
same,TD50,"rat, strain Charles River CD (Sprague-Dawley), females, in feed, site: liver, lesion: hepatocellular adenoma, dosed 104 weeks, study length 104 weeks",157 mg/kg/day (inactive)
same,carcinogen call,"rat, strain Charles River CD (Sprague-Dawley), females, in feed, site: liver, lesion: hepatocellular carcinoma, dosed 104 weeks, study length 104 weeks",negative (inactive)
same,TD50,"rat, strain Charles River CD (Sprague-Dawley), males, in feed, site: liver, lesion: hepatocellular adenoma, dosed 104 weeks, study length 104 weeks",8240 mg/kg/day (inactive)
same,TD50,"rat, strain Charles River CD (Sprague-Dawley), males, in feed, site: liver, lesion: hepatocellular carcinoma, dosed 104 weeks, study length 104 weeks",405 mg/kg/day (inactive)
CC(=O)C(N=Nc1ccc(Cl)cc1Cl)C(=O)Nc1ccc(-c2ccc(NC(=O)C(N=Nc3ccc(Cl)cc3Cl)C(C)=O)c(C)c2)cc1C (stereo unspecified),TD50,"mouse, strain NMRI, both sexes, in feed, site: any site (literature study), lesion: one or several types, types not named, dosed 104 weeks, study length 104 weeks",11700 mg/kg/day (inactive)
same,TD50,"rat, strain Sprague-Dawley, both sexes, in feed, site: any site (literature study), lesion: one or several types, types not named, dosed 104 weeks, study length 104 weeks",13700 mg/kg/day (inactive)
C=C1C/C(=C/C)C(=O)O[C@@H]2CCN3CC=C(COC(=O)[C@@]1(O)CO)[C@H]23,TD50,"mouse, strain B6C3F1, females, by gavage, site: all sites, lesion: hemangioma + hemangiosarcoma, dosed 105 weeks, study length 105 weeks",10 mg/kg/day
same,TD50,"mouse, strain B6C3F1, females, by gavage, site: any site (literature study), lesion: several types, types named in the paper, dosed 105 weeks, study length 105 weeks",0.691 mg/kg/day
same,TD50,"mouse, strain B6C3F1, females, by gavage, site: lung, lesion: alveolar/bronchiolar adenoma + alveolar/bronchiolar carcinoma, dosed 105 weeks, study length 105 weeks",1.99 mg/kg/day
same,TD50,"mouse, strain B6C3F1, females, by gavage, site: lung, lesion: alveolar/bronchiolar adenoma, dosed 105 weeks, study length 105 weeks",2.68 mg/kg/day
same,TD50,"mouse, strain B6C3F1, males, by gavage, site: all sites, lesion: hemangiosarcoma, dosed 104 weeks, study length 104 weeks",1.63 mg/kg/day
same,TD50,"mouse, strain B6C3F1, males, by gavage, site: any site (literature study), lesion: several types, types named in the paper, dosed 104 weeks, study length 104 weeks",1.09 mg/kg/day
same,TD50,"mouse, strain B6C3F1, males, by gavage, site: liver, lesion: hemangiosarcoma, dosed 104 weeks, study length 104 weeks",1.96 mg/kg/day
same,TD50,"mouse, strain B6C3F1, males, by gavage, site: lung, lesion: alveolar/bronchiolar adenoma + alveolar/bronchiolar carcinoma, dosed 104 weeks, study length 104 weeks",5.57 mg/kg/day
same,TD50,"rat, strain Fischer 344, females, by gavage, site: all sites + liver, lesion: mononuclear-cell leukemia + hemangiosarcoma + hepatocellular adenoma, dosed 102 weeks, study length 104 weeks",0.143 mg/kg/day
same,TD50,"rat, strain Fischer 344, females, by gavage, site: all sites + liver, lesion: mononuclear-cell leukemia + hepatocellular adenoma, dosed 102 weeks, study length 104 weeks",0.234 mg/kg/day
same,TD50,"rat, strain Fischer 344, females, by gavage, site: all sites, lesion: hemangiosarcoma, dosed 102 weeks, study length 104 weeks",0.446 mg/kg/day
same,TD50,"rat, strain Fischer 344, females, by gavage, site: all sites, lesion: mononuclear-cell leukemia, dosed 102 weeks, study length 104 weeks",0.293 mg/kg/day
same,TD50,"rat, strain Fischer 344, females, by gavage, site: any site (literature study), lesion: several types, types named in the paper, dosed 102 weeks, study length 104 weeks",0.0706 mg/kg/day
same,TD50,"rat, strain Fischer 344, females, by gavage, site: liver, lesion: hemangiosarcoma, dosed 102 weeks, study length 104 weeks",0.457 mg/kg/day
same,TD50,"rat, strain Fischer 344, females, by gavage, site: liver, lesion: hepatocellular adenoma + hepatoblastoma + hepatocellular carcinoma, dosed 102 weeks, study length 104 weeks",1.2 mg/kg/day
same,TD50,"rat, strain Fischer 344, females, by gavage, site: liver, lesion: hepatocellular adenoma + hepatocellular carcinoma, dosed 102 weeks, study length 104 weeks",1.2 mg/kg/day
same,TD50,"rat, strain Fischer 344, females, by gavage, site: liver, lesion: hepatocellular adenoma, dosed 102 weeks, study length 104 weeks",1.63 mg/kg/day
same,TD50,"rat, strain Fischer 344, females, by gavage, site: thyroid gland, lesion: c-cell adenoma + c-cell adenoma, bilateral, dosed 102 weeks, study length 104 weeks",0.62 mg/kg/day
same,TD50,"rat, strain Fischer 344, males, by gavage, site: all sites + liver, lesion: mononuclear-cell leukemia + hemangiosarcoma + hepatocellular adenoma, dosed 71 weeks, study length 71 weeks",0.0665 mg/kg/day
same,TD50,"rat, strain Fischer 344, males, by gavage, site: all sites + liver, lesion: mononuclear-cell leukemia + hepatocellular adenoma, dosed 71 weeks, study length 71 weeks",0.179 mg/kg/day
same,TD50,"rat, strain Fischer 344, males, by gavage, site: all sites, lesion: mononuclear-cell leukemia, dosed 71 weeks, study length 71 weeks",0.232 mg/kg/day
same,TD50,"rat, strain Fischer 344, males, by gavage, site: any site (literature study), lesion: several types, types named in the paper, dosed 71 weeks, study length 71 weeks",0.0267 mg/kg/day
same,TD50,"rat, strain Fischer 344, males, by gavage, site: liver, lesion: hemangiosarcoma, dosed 71 weeks, study length 71 weeks",0.0744 mg/kg/day
same,TD50,"rat, strain Fischer 344, males, by gavage, site: liver, lesion: hepatocellular adenoma + hepatoblastoma + hepatocellular carcinoma, dosed 71 weeks, study length 71 weeks",0.584 mg/kg/day
same,TD50,"rat, strain Fischer 344, males, by gavage, site: liver, lesion: hepatocellular adenoma, dosed 71 weeks, study length 71 weeks",0.584 mg/kg/day
same,TD50,"rat, strain Fischer 344, males, by gavage, site: lung, lesion: alveolar/bronchiolar adenoma, dosed 71 weeks, study length 71 weeks",0.528 mg/kg/day
C/C=C/C=O,TD50,"rat, strain Charles River, males, in drinking water, site: liver, lesion: neoplastic nodule, dosed 113 weeks, study length 113 weeks",4.2 mg/kg/day
same,TD50,"rat, strain Charles River, males, in drinking water, site: liver, lesion: several types, types named in the paper, dosed 113 weeks, study length 113 weeks",4.2 mg/kg/day
Nc1ccc(Cc2ccc(N)c(Cl)c2)cc1Cl,TD50,"mouse, strain CD-1 HaM/ICR, females, in feed, site: any site (literature study), lesion: several types, types named in the paper, dosed 77 weeks, study length 90 weeks",52.8 mg/kg/day
same,TD50,"mouse, strain CD-1 HaM/ICR, females, in feed, site: liver, lesion: hepatoma, dosed 77 weeks, study length 90 weeks",66.6 mg/kg/day
same,TD50,"mouse, strain CD-1 HaM/ICR, females, in feed, site: liver, lesion: several types, types named in the paper, dosed 77 weeks, study length 90 weeks",66.6 mg/kg/day
same,TD50,"mouse, strain CD-1 HaM/ICR, females, in feed, site: lung, lesion: several types, types named in the paper, dosed 77 weeks, study length 90 weeks",556 mg/kg/day (inactive)
same,TD50,"mouse, strain CD-1 HaM/ICR, males, in feed, site: any site (literature study), lesion: several types, types named in the paper, dosed 77 weeks, study length 94 weeks",97.9 mg/kg/day
same,TD50,"mouse, strain CD-1 HaM/ICR, males, in feed, site: liver, lesion: several types, types named in the paper, dosed 77 weeks, study length 94 weeks",471 mg/kg/day
same,TD50,"mouse, strain CD-1 HaM/ICR, males, in feed, site: lung, lesion: several types, types named in the paper, dosed 77 weeks, study length 94 weeks",342 mg/kg/day (inactive)
same,TD50,"rat, strain Charles River CD (Sprague-Dawley), males, in feed, site: any site (literature study), lesion: several types, types named in the paper, dosed 77 weeks, study length 98 weeks",33.4 mg/kg/day
same,TD50,"rat, strain Charles River CD (Sprague-Dawley), males, in feed, site: liver, lesion: several types, types named in the paper, dosed 77 weeks, study length 98 weeks",70.1 mg/kg/day
CCN(N=O)C(=O)NCCO,TD50,"hamster, strain Syrian Golden, females, by gavage, site: cervix uteri, lesion: one or several types, types not named, dosed 30 weeks, study length 75 weeks",1.04 mg/kg/day
same,TD50,"hamster, strain Syrian Golden, females, by gavage, site: forestomach, lesion: benign tumor, dosed 30 weeks, study length 75 weeks",1.76 mg/kg/day
same,TD50,"hamster, strain Syrian Golden, females, by gavage, site: liver, lesion: cholangioma, dosed 30 weeks, study length 75 weeks",27.5 mg/kg/day
same,TD50,"hamster, strain Syrian Golden, females, by gavage, site: spleen, lesion: all vascular tumors, dosed 30 weeks, study length 75 weeks",3.05 mg/kg/day
same,TD50,"rat, strain Fischer 344, females, in drinking water, site: mammary tissue, wider than the gland, lesion: carcinoma, dosed 30 weeks, study length 104 weeks",0.748 mg/kg/day
same,TD50,"rat, strain Fischer 344, females, in drinking water, site: nervous system, lesion: one or several types, types not named, dosed 30 weeks, study length 104 weeks",0.714 mg/kg/day
same,TD50,"rat, strain Fischer 344, females, in drinking water, site: skin, lesion: one or several types, types not named, dosed 30 weeks, study length 104 weeks",0.956 mg/kg/day
same,TD50,"rat, strain Fischer 344, females, in drinking water, site: uterus, lesion: one or several types, types not named, dosed 30 weeks, study length 104 weeks",0.972 mg/kg/day
same,TD50,"rat, strain Fischer 344, males, in drinking water, site: lung, lesion: one or several types, types not named, dosed 30 weeks, study length 104 weeks",0.39 mg/kg/day
same,TD50,"rat, strain Fischer 344, males, in drinking water, site: nervous system, lesion: one or several types, types not named, dosed 30 weeks, study length 104 weeks",0.769 mg/kg/day
same,TD50,"rat, strain Fischer 344, males, in drinking water, site: skin, lesion: one or several types, types not named, dosed 30 weeks, study length 104 weeks",0.401 mg/kg/day
same,TD50,"rat, strain Fischer 344, males, in drinking water, site: tunica vaginalis, lesion: mesothelioma, dosed 30 weeks, study length 104 weeks",0.226 mg/kg/day
O=NN(CCCC(F)(F)F)CCCC(F)(F)F,TD50,"rat, strain Sprague-Dawley, females, by gavage, site: any site (literature study), lesion: malignant tumor, dosed 32 weeks, study length 101 weeks",0.291 mg/kg/day
same,TD50,"rat, strain Sprague-Dawley, females, by gavage, site: liver, lesion: hepatocellular carcinoma, dosed 32 weeks, study length 101 weeks",0.707 mg/kg/day
same,TD50,"rat, strain Sprague-Dawley, females, by gavage, site: lung, lesion: several types, types named in the paper, dosed 32 weeks, study length 101 weeks",1.12 mg/kg/day
same,TD50,"rat, strain Sprague-Dawley, males, by gavage, site: any site (literature study), lesion: malignant tumor, dosed 32 weeks, study length 101 weeks",0.363 mg/kg/day
same,TD50,"rat, strain Sprague-Dawley, males, by gavage, site: liver, lesion: hepatocellular carcinoma, dosed 32 weeks, study length 101 weeks",0.793 mg/kg/day
same,TD50,"rat, strain Sprague-Dawley, males, by gavage, site: lung, lesion: several types, types named in the paper, dosed 32 weeks, study length 101 weeks",0.793 mg/kg/day
